Experiments:
[1] = target: 4-aminobutyrate aminotransferase, mitochondrial (Homo sapiens) (UniProt P80404); test: Time dependent inactivation of Gamma-amino-N-butyrate transaminase; settings: Cavia porcellus
[2] = Ratio of kinact to that of KI.

4-aminobutyrate aminotransferase, mitochondrial (Homo sapiens), sequence (P80404 whole entry): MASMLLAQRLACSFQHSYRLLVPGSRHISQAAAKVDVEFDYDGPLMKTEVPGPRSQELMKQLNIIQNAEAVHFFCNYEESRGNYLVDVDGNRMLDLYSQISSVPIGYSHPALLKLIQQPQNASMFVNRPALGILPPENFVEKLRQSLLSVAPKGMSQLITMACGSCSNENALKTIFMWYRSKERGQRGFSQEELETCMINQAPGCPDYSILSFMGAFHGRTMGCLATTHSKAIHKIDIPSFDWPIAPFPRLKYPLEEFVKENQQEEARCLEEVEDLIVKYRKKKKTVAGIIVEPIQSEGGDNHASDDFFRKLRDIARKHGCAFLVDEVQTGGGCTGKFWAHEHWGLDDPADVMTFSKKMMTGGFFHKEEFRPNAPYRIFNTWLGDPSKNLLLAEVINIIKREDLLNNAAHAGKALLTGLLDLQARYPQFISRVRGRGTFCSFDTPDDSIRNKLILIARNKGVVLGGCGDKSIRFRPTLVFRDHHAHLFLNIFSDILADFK

| Compound | K inact [1] | Ratio [2] |
| --- | --- | --- |
| N[C@@H]1C=CCC[C@@H]1C(=O)O | 0.03 min⁻¹ | 0.0024 |
| N[C@@H]1C=CC[C@H](C(=O)O)C1 | 0.01 min⁻¹ | 0.0042 |
